Among the data in US20240279233A1, “MACROCYCLIC TAK1 INHIBITORS” (Aqilion AB, priority 2021, published 2024) are IC50 values, retold here.

A word on the IC50: it is the concentration that inhibits the measured activity by half.

Chain of human recombinant TAK1-TAB1 Kinase (TAK1 (1-303) and TAB1 (437-end)) (O43318 other isoform, or with tags, fused parts or gaps): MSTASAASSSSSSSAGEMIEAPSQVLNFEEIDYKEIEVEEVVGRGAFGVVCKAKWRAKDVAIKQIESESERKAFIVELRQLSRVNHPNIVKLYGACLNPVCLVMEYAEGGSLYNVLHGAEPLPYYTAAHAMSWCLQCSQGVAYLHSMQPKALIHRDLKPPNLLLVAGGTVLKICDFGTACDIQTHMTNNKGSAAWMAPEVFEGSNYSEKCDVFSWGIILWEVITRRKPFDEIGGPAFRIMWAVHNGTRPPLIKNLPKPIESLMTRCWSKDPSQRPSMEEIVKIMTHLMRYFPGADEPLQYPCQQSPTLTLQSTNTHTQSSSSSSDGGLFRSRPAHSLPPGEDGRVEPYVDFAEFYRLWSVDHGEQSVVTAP

The first assay addresses human recombinant TAK1-TAB1 Kinase (TAK1 (1-303) and TAB1 (437-end)) (Homo sapiens (Human), UniProt O43318). As to the kind of experiment: TAK1 biochemical ADP-Glo kinase assay. The settings on record: 10 μM ATP, MBP substrate; read-out: TAK1 Mean IC50 (nM) @ 10 μM ATP. On the procedure:
The usefulness of the example compounds of the invention as TAK1 inhibitors was evaluated in a biochemical ADP-Glo kinase assay. Assay kits from Promega Corporation V4089 were used according to manufacturer's instructions and adapted as outlined here. ADP-Glo Kinase Assay kit contains ADP-Glo Reagent, Kinase Detection Reagent, kinase detection buffer, ATP, and ADP. The Kinase Enzyme Systems include human recombinant TAK1-TAB1 Kinase (TAK1 (1-303) and TAB1 (437-end)), Native Swine Myelin Basic Protein (MBP) substrate, 5×kinase reaction buffer, and DTT.
Test compounds were prepared in 1:5 serial dilutions at 8 concentrations in DMSO from 10 mM stock solutions. An additional 20-fold dilution in 1× kinase reaction buffer (see below) was performed, yielding a final dilution series in kinase buffer with 5% DMSO (final concentration in assay from 20 μM to 0.26 nM, 1% DMSO). As controls, Takinib was prepared as positive control (3 μM final in assay), and DMSO without inhibitor served as negative control, at a final assay concentration of DMSO of 1%.
One μl of compound solution in 5% DMSO was added to each well in a 384 well microtiter plate (OptiPlate #6007290). Two μl TAK1-TAB1 (7.5 ng/μl) in lxkinase reaction buffer ([…] Tris base pH 7.5, 20 mM MgCl2, 50 μM DTT, 0.1 mg/ml BSA) was added and pre-incubated 10 min before adding 2 μl of a mixture of MBP substrate and ATP (0.25 μg/μL MBP/25 μM ATP or 0.25 μg/μL MBP/2.5 mM ATP) in 1× kinase reaction buffer (as above). The plate was subsequently incubated at room temperature for 1 hour. Then 5 μl ADP-Glo™ reagent from ADP-Glo™ kit (as above) was added and incubated for 40 min to stop the reaction and consume remaining ATP. Ten μl kinase detection substrate (dissolved in kinase detection buffer, both from ADP-Glo™ kit as above) was then added to convert ADP to ATP and detect ATP with luciferase/luciferin. The plate was incubated for 30 minutes at room temperature in dark before reading luminescence on an Envision (PerkinElmer) reader.
IC50 values of compounds of the invention were determined by the non-linear regression analysis of dose response curves.
As for `CC1CCCCNC(=O)c2cccc(c2)C(=O)Nc2nc3cccc(C(=O)N(C)C)c3n21` (single isomer, unassigned) [Example 31, (E)-N,N,11-trimethyl-3,5-dioxo-1^2,1^3-dihydro-1^1H-2,6-diaza-1(2,1)-benzo[d]imidazola-4(1,3)-benzenacycloundecaphane-1^7-carboxamide], the half-inhibitory concentration (IC50) came out at 3 nM. Consider `CC1CCCCNC(=O)c2cccc(c2)C(=O)Nc2nc3cccc(-c4ccc[nH]c4=O)c3n21` (single isomer, unassigned) [Example 35, (E)-11-methyl-1^7-(2-oxo-1,2-dihydropyridin-3-yl)-1^2,1^3-dihydro-1^1H-2,6-diaza-1(2,1)-benzo[d]imidazola-4(1,3)-benzenacycloundecaphane-3,5-dione], for which the IC50 is 5 nM. For `CC1CCCCNC(=O)c2cccc(c2)C(=O)Nc2nc3cccc(-c4ccc[nH]c4=O)c3n21` (single isomer, unassigned) [Example 36, (E)-11-methyl-1^7-(2-oxo-1,2-dihydropyridin-3-yl)-1^2,1^3-dihydro-1^1H-2,6-diaza-1(2,1)-benzo[d]imidazola-4(1,3)-benzenacycloundecaphane-3,5-dione], the IC50 is 6 nM. Still for that read-out and setting: as for `C[C@H]1CCCCNC(=O)c2cccc(c2)C(=O)Nc2nc3ccc(Cl)c(C(=O)N(C)C)c3n21` (single isomer, unassigned) [Example 53], the figure is 258 nM; as for `CC1CCCCNC(=O)c2cccc(c2)C(=O)/N=C2\Nc3cccc(C4CCCNC4=O)c3N21` (single isomer, unassigned) [Example 58, (E)-11-methyl-1^7-(2-oxopiperidin-3-yl)-1^2,1^3-dihydro-1^1H-2,6-diaza-1(2,1)-benzo[d]imidazola-4(1,3)-benzenacycloundecaphane-3,5-dione], 4 nM. Still for that read-out and setting: as for `CC1CCCCNC(=O)c2cccc(c2)C(=O)/N=C2\Nc3cccc(C4CCCNC4=O)c3N21` (single isomer, unassigned) [Example 59, (E)-11-methyl-1^7-(2-oxopiperidin-3-yl)-1^2,1^3-dihydro-1^1H-2,6-diaza-1(2,1)-benzo[d]imidazola-4(1,3)-benzenacycloundecaphane-3,5-dione], the figure is 4 nM; as for `CC1CCCCNC(=O)c2cccc(c2)C(=O)/N=C2\Nc3cccc(C4CCCNC4=O)c3N21` (single isomer, unassigned) [Example 60, (E)-11-methyl-1^7-(2-oxopiperidin-3-yl)-1^2,1^3-dihydro-1^1H-2,6-diaza-1(2,1)-benzo[d]imidazola-4(1,3)-benzenacycloundecaphane-3,5-dione], 5 nM; as for `CC1CCCCNC(=O)c2cccc(c2)C(=O)/N=C2\Nc3cccc(C4CCCNC4=O)c3N21` (single isomer, unassigned) [Example 61, (E)-11-methyl-1^7-(2-oxopiperidin-3-yl)-1^2,1^3-dihydro-1^1H-2,6-diaza-1(2,1)-benzo[d]imidazola-4(1,3)-benzenacycloundecaphane-3,5-dione], 4 nM.

For `CC1CCCCNC(=O)c2cccc(c2)C(=O)/N=C2\Nc3cccc(-c4cc[nH]c(=O)c4)c3N21` (single isomer, unassigned) [Example 62, (E)-11-methyl-1^7-(2-oxo-1,2-dihydropyridin-4-yl)-1^2,1^3-dihydro-1^1H-2,6-diaza-1(2,1)-benzo[d]imidazola-4(1,3)-benzenacycloundecaphane-3,5-dione], the IC50 worked out at 12 nM. `CC1CCCCNC(=O)c2cccc(c2)C(=O)/N=C2\Nc3cccc(-c4cc[nH]c(=O)c4)c3N21` (single isomer, unassigned) [Example 63, (E)-11-methyl-1^7-(2-oxo-1,2-dihydropyridin-4-yl)-1^2,1^3-dihydro-1^1H-2,6-diaza-1(2,1)-benzo[d]imidazola-4(1,3)-benzenacycloundecaphane-3,5-dione]: the IC50 is 8 nM. Take `CCC1CCCCNC(=O)c2cccc(c2)C(=O)Nc2nc3cccc(C(=O)N(C)C)c3n21` (single isomer, unassigned) [Example 67, (E)-11-ethyl-N,N-dimethyl-3,5-dioxo-1^2,1^3-dihydro-1^1H-2,6-diaza-1(2,1)-benzo[d]imidazola-4(1,3)-benzenacycloundecaphane-1^7-carboxamide]: the concentration for half-maximal inhibition (IC50) came out at 5 nM.

Consider `CCC1CCCCNC(=O)c2cccc(c2)C(=O)Nc2nc3cccc(C(=O)N(C)C)c3n21` (single isomer, unassigned) [Example 68, (E)-11-ethyl-N,N-dimethyl-3,5-dioxo-1^2,1^3-dihydro-1^1H-2,6-diaza-1(2,1)-benzo[d]imidazola-4(1,3)-benzenacycloundecaphane-1^7-carboxamide], for which the half-inhibitory concentration (IC50) was found to be 4 nM. Still for that read-out and setting: for `CC1CCCCNC(=O)c2cccc(c2)C(=O)/N=C2\Nc3cccc(C(=O)N(C)CCF)c3N21` (single isomer, unassigned) [Example 71, (E)-N-(2-fluoroethyl)-N,11-dimethyl-3,5-dioxo-1^2,1^3-dihydro-1^1H-2,6-diaza-1(2,1)-benzo[d]imidazola-4(1,3)-benzenacycloundecaphane-1^7-carboxamide] the value was 6 nM.

Consider `CC1CCCCNC(=O)c2cccc(c2)C(=O)/N=C2\Nc3cccc(C(=O)N(C)CC(F)F)c3N21` (single isomer, unassigned) [Example 72, (E)-N-(2,2-difluoroethyl)-N,11-dimethyl-3,5-dioxo-1^2,1^3-dihydro-1^1H-2,6-diaza-1(2,1)-benzo[d]imidazola-4(1,3)-benzenacycloundecaphane-1^7-carboxamide], for which the IC50 came out at 7 nM. For the compound `CC1CCCCNC(=O)c2cccc(c2)C(=O)/N=C2\Nc3cccc(C(=O)N(C)CC(F)F)c3N21` (single isomer, unassigned) [Example 73, (E)-N-(2,2-difluoroethyl)-N,11-dimethyl-3,5-dioxo-1^2,1^3-dihydro-1^1H-2,6-diaza-1(2,1)-benzo[d]imidazola-4(1,3)-benzenacycloundecaphane-1^7-carboxamide], the IC50 is 5 nM. Still for that read-out and setting: as for `CC1CCCCNC(=O)c2cccc(c2)C(=O)/N=C2\Nc3cccc(C(=O)N4CCOC[C@H]4C)c3N21` (single isomer, unassigned) [Example 75], the figure is 11 nM; as for `CC1CCCCNC(=O)c2cccc(c2)C(=O)/N=C2\Nc3cccc(C(=O)N4CCOC[C@@H]4C)c3N21` (single isomer, unassigned) [Example 77], 5 nM. Still for that read-out and setting: as for `CC1CCCCNC(=O)c2cccc(c2)C(=O)/N=C2\Nc3cccc(C(=O)N4CC5(CCO5)C4)c3N21` (single isomer, unassigned) [Example 80, (E)-11-methyl-1^7-(1-oxa-6-azaspiro[3.3]heptane-6-carbonyl)-1^2,1^3-dihydro-1^1H-2,6-diaza-1(2,1)-benzo[d]imidazola-4(1,3)-benzenacycloundecaphane-3,5-dione], the figure is 5 nM; as for `COC1CN(C(=O)c2cccc3c2N2/C(=N/C(=O)c4cccc(c4)C(=O)NCCCCC2C)N3)C1` (single isomer, unassigned) [Example 81, (E)-1^7-(3-methoxyazetidine-1-carbonyl)-11-methyl-1^2,1^3-dihydro-1^1H-2,6-diaza-1(2,1)-benzo[d]imidazola-4(1,3)-benzenacycloundecaphane-3,5-dione], 6 nM. On the same count and under the same terms, as for `COC1CN(C(=O)c2cccc3c2N2/C(=N/C(=O)c4cccc(c4)C(=O)NCCCCC2C)N3)C1` (single isomer, unassigned) [Example 82, (E)-1^7-(3-methoxyazetidine-1-carbonyl)-11-methyl-1^2,1^3-dihydro-1^1H-2,6-diaza-1(2,1)-benzo[d]imidazola-4(1,3)-benzenacycloundecaphane-3,5-dione], the figure is 7 nM. Consider `CC1CCCCNC(=O)c2cccc(c2)C(=O)/N=C2\Nc3cccc(C(=O)N4CC[C@H](F)C4)c3N21` (single isomer, unassigned) [Example 88], for which the IC50 turned out to be 9 nM. Same read-out and setting: for `CC1CCCCNC(=O)c2cccc(c2)C(=O)Nc2nc3cccc(-c4nccn4C(F)F)c3n21` (single isomer, unassigned) [Example 91, (E)-1^7-(1-(difluoromethyl)-1H-imidazol-2-yl)-11-methyl-1^2,1^3-dihydro-1^1H-2,6-diaza-1(2,1)-benzo[d]imidazola-4(1,3)-benzenacycloundecaphane-3,5-dione] the value was 5 nM; for `CC1CCCCNC(=O)c2cccc(c2)C(=O)/N=C2\Nc3cccc(C(=O)N4CC[C@@H](F)C4)c3N21` (single isomer, unassigned) [Example 92], 6 nM.

The same assay, now with this note: 1 mM ATP, MBP substrate; read-out: TAK1 Mean IC50 (nM) @ 1 mM ATP.
With `CC1CCCCNC(=O)c2cccc(c2)C(=O)Nc2nc3cccc(C(=O)N(C)C)c3n21` (single isomer, unassigned) [Example 31, (E)-N,N,11-trimethyl-3,5-dioxo-1^2,1^3-dihydro-1^1H-2,6-diaza-1(2,1)-benzo[d]imidazola-4(1,3)-benzenacycloundecaphane-1^7-carboxamide], the 50% inhibitory concentration (IC50) was determined as 14 nM.

For `CC1CCCCNC(=O)c2cccc(c2)C(=O)/N=C2\Nc3cccc(C(=O)N(C)CCF)c3N21` (single isomer, unassigned) [Example 71, (E)-N-(2-fluoroethyl)-N,11-dimethyl-3,5-dioxo-1^2,1^3-dihydro-1^1H-2,6-diaza-1(2,1)-benzo[d]imidazola-4(1,3)-benzenacycloundecaphane-1^7-carboxamide], the half-maximal inhibitory concentration (IC50) stood at 27 nM. On the same count and under the same terms, for `CC1CCCCNC(=O)c2cccc(c2)C(=O)Nc2nc3cccc(-c4nccn4C(F)F)c3n21` (single isomer, unassigned) [Example 91, (E)-1^7-(1-(difluoromethyl)-1H-imidazol-2-yl)-11-methyl-1^2,1^3-dihydro-1^1H-2,6-diaza-1(2,1)-benzo[d]imidazola-4(1,3)-benzenacycloundecaphane-3,5-dione] the value was 19 nM.
